Experimental data as given in US10919885B2, “Compounds and uses thereof” (Yumanity Therapeutics, Inc., priority 2018, dated 2021).
pIC50: −log10 of the molar value.

Biological target: human SCD1 (Homo sapiens (Human), UniProt O00767)
Assay: Yeast growth assay, strain expressing human SCD1 as the sole desaturase (reduced growth as surrogate for SCD inhibition)
Type: cell-based
Settings: yeast with OLE1 deleted expressing human SCD1 from a plasmid; growth read as OD600 after 40 h at 30° C.; top drug concentration 33.3 μM
Protocol: Strains expressing SCD1 or SCD5 as the sole desaturase, the human SCD1 and SCD5 genes were used to evaluate inhibition of SCD1/SCD5 using reduced growth as a surrogate for SCD inhibition. These yeast strains express human SCD1 or SCD5 from a plasmid harbored in a strain in which the yeast OLE1 gene is deleted.
All compound profiling experiments were performed using the same basic protocol. Yeast were cultured using standard techniques in complete synthetic media lacking uracil and containing yeast nitrogen base supplemented with 2% (w/v) glucose (SD-Ura) Starter cultures were inoculated in 3 mL SD-Ura media containing 0.01% tween and 0.2 mM palmitoleic and oleic acid. Cultures were incubated overnight in a 30° C. shaker incubator (225 rpm). Saturated morning cultures were centrifuged, washed in SD-Ura media lacking TWEEN-20 and fatty acids, and then diluted 1:20 in fresh SD-Ura media also lacking TWEEN-20 and fatty acids.
Compound administration was performed in two separate steps. First, 15 μL of SD-Ura was dispensed into clear 384-well assay plates using a MULTIDROP™ Combi reagent dispenser. […] The cultures described above were centrifuged and washed with media lacking TWEEN-20 or oleic and palmitoleic acids.
After yeast delivery, assay plates were incubated under humidified conditions at 30° C. for 40 h. Yeast growth was monitored by reading the OD600 of each well using a microplate reader (Perkin Elmer EnVision™).

Chain of human SCD1 (O00767 whole entry): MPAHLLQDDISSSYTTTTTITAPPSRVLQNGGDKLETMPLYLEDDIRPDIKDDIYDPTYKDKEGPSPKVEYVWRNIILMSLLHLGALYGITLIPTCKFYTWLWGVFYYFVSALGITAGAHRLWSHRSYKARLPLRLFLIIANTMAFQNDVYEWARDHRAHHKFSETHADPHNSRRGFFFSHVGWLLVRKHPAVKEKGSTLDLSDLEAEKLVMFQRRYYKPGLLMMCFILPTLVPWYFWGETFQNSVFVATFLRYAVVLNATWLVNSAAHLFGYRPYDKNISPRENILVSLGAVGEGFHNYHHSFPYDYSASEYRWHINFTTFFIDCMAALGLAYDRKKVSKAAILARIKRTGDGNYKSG

Compound	pIC50
COC1(c2cc(C(=O)Nc3cnn(Cc4cccc(F)c4)c3)no2)CCC1 [Compound 115, N-(1-(3-fluorobenzyl)-1H-pyrazol-4-yl)-5-(1-methoxycyclobutyl)isoxazole-3-carboxamide]	6.47
O=C(c1cc(-c2ccc3c(c2)OCO3)on1)N1CCN(c2ccccc2F)CC1 [Compound 277]	< 4.35
CNC(=O)c1ccc(-c2cc(C(=O)N3CC(c4ccccc4)C3)no2)cc1 [Compound 231, N-methyl-4-(3-(3-phenylazetidine-1-carbonyl)isoxazol-5-yl)benzamide]	< 4.35
Cn1c(=O)oc2ccc(-c3cc(C(=O)N4CCC[C@H]4c4ccccc4)no3)cc21 [Compound 444]	< 4.35
C[C@H]1CCCN1C(=O)c1cc(-c2ccc3c(c2)OCO3)on1 [Compound 369]	< 4.35
COCc1ncc(-c2cc(C(=O)Nc3cnn(Cc4ccccc4)c3)no2)s1 [Compound 140, N-(1-benzyl-1H-pyrazol-4-yl)-5-(2-(methoxymethyl)thiazol-5-yl)isoxazole-3-carboxamide]	5.29
O=C(Nc1cnn(Cc2cccc(F)c2)c1)c1noc2c1CCCC2 [Compound 193, N-{1-[(3-fluorophenyl)methyl]-1H-pyrazol-4-yl}-4,5,6,7-tetrahydro-1,2-benzoxazole-3-carboxamide]	8.00
N#Cc1ccccc1-c1cc(C(=O)N2CCC[C@H]2c2ccccc2)no1 [Compound 402]	< 4.35
O=C(c1cc(-c2ccc3c(c2)OCO3)on1)N1CCOCC1c1ccccc1 (stereo not shown) [Compound 397]	< 4.35
O=C(Nc1cnn(Cc2cc(F)ccc2Cl)c1)c1cc(-c2ccco2)on1 [Compound 28, N-(1-(2-chloro-5-fluorobenzyl)-1H-pyrazol-4-yl)-5-(furan-2-yl)isoxazole-3-carboxamide]	< 4.35
O=C(c1cc(-c2ccccn2)on1)N1CCC[C@H]1c1ccccc1 [Compound 408]	< 4.35
N#Cc1ccc(-c2cc(C(=O)N3CCC[C@H]3c3ccccc3)no2)nc1 [Compound 435]	< 4.35
O=C(Nc1cnn(Cc2ccccc2)c1)c1cc(-c2ccncn2)on1 [Compound 148]	5.40
O=C(c1cc(-c2ccc3c(c2)OCO3)on1)N1CCC[C@H]1C(F)(F)F [Compound 373]	< 4.35
COc1ccc([C@@H]2CCCN2C(=O)c2cc(-c3ccc4c(c3)OCO4)on2)cc1 [Compound 359]	< 4.35
O=C(c1cc(-c2ccccc2)on1)N1CCCC1c1ccccc1 (stereo not shown) [Compound 387]	< 4.35
CNC(=O)c1ccc(-c2cc(C(=O)N3CCC(c4ccccc4)CC3)no2)cc1 [Compound 304, N-methyl-4-[3-(4-phenylpiperidine-1-carbonyl)isoxazol-5-yl]benzamide]	6.42
O=C(Nc1cnn(Cc2ccccc2)c1)c1cc(-c2nccs2)on1 [Compound 110, N-(1-benzyl-1H-pyrazol-4-yl)-5-(thiazol-2-yl)isoxazole-3-carboxamide]	5.05

Now from value to compound:

pIC50	Compound
< 4.35	Cc1cccc(C2CCCN2C(=O)c2cc(-c3ccc4c(c3)OCO4)on2)c1 (stereo not shown) [Compound 355]
< 4.35	O=C(c1cc(-c2ccc3c(c2)OCO3)on1)N1CCC(c2cccc(F)c2)CC1 [Compound 309, [5-(1,3-benzodioxol-5-yl)isoxazol-3-yl]-[4-(3-fluorophenyl)-1-piperidyl]methanone]
< 4.35	Cc1cnccc1-c1cc(C(=O)Nc2cnn(Cc3ccccc3)c2)no1 [Compound 201, N-(1-benzyl-1H-pyrazol-4-yl)-5-(3-methylpyridin-4-yl)isoxazole-3-carboxamide]
< 4.35	O=C(Nc1cnn(Cc2cc(F)ccc2C(F)(F)F)c1)c1cc(-c2ccco2)on1 [Compound 36, N-[1-[[5-fluoro-2-(trifluoromethyl)phenyl]methyl]pyrazol-4-yl]-5-(2-furyl)isoxazole-3-carboxamide]
< 4.35	COc1ccc(C2CCCN2C(=O)c2cc(-c3ccc4c(c3)OCO4)on2)cc1 (stereo not shown) [Compound 356]
7.19	CO[C@H]1CCN(c2cc(C(=O)Nc3cnn(Cc4ccccc4)c3)no2)C1 [Compound 189, (S)—N-(1-benzyl-1H-pyrazol-4-yl)-5-(3-methoxypyrrolidin-1-yl)isoxazole-3-carboxamide]
< 4.35	O=C(c1cc(-c2ccc3c(c2)OCO3)on1)N1CCC[C@H]1c1ccon1 [Compound 426]
< 4.35	O=C(c1cc(-c2ccc3c(c2)OCO3)on1)N1CCC(c2ccccc2C(F)(F)F)CC1 [Compound 302, [5-(1,3-benzodioxol-5-yl)isoxazol-3-yl]-[4-[2-(trifluoromethyl)phenyl]-1-piperidyl]methanone]
< 4.35	O=C(Nc1cnn(Cc2cnccc2C(F)(F)F)c1)c1cc(N2CCCCC2)on1 [Compound 182, 5-(piperidin-1-yl)-N-(1-((4-(trifluoromethyl)pyridin-3-yl)methyl)-1H-pyrazol-4-yl)isoxazole-3-carboxamide]
4.64	COc1ccc(-c2cc(C(=O)N3CCC[C@H]3c3ccccc3)no2)nc1 [Compound 416]
< 4.35	O=C(c1cc(-c2ccc3c(c2)OCO3)on1)N1CCOc2ccccc21 [Compound 262]
< 4.35	O=C(c1cc(-c2ccccn2)on1)N1CCC(c2ccccc2)C1 (stereo not shown) [Compound 351]
< 4.35	O=C(c1cc(-c2ccc3c(c2)OCO3)on1)N1CCC[C@@H]1c1ccccc1 [Compound 358]
5.32	O=C(c1cc(-c2ccccc2)on1)N1CC=C(c2cc(F)ccc2Cl)CC1 [Compound 305]
< 4.35	O=C(c1cc(-c2ccc3c(c2)OCO3)on1)N1CCCC1c1cc(Br)no1 (stereo not shown) [Compound 412]
7.59	CC(C)c1cc(C(=O)Nc2cnn(Cc3ccccc3)c2)no1 [Compound 117, N-(1-benzyl-1H-pyrazol-4-yl)-5-isopropylisoxazole-3-carboxamide]
< 4.35	O=C(Nc1cnn(Cc2cnccc2C(F)(F)F)c1)c1cc(-c2ccc3c(c2)OCO3)on1 [Compound 199, 5-(2H-1,3-benzodioxol-5-yl)-N-(1-{[4-(trifluoromethyl)pyridin-3-yl]methyl}-1H-pyrazol-4-yl)-1,2-oxazole-3-carboxamide]
< 4.35	O=C(c1cc(N2CCOCC2)on1)N1CCC[C@H]1c1ccccc1 [Compound 463]
6.15	O=C(Nc1cnn(Cc2ccccc2)c1)c1cc(-c2ccccn2)on1 [Compound 8, N-(1-benzylpyrazol-4-yl)-5-(2-pyridyl)isoxazole-3-carboxamide]
< 4.35	O=C(c1cc(-c2ccc3c(c2)OCO3)on1)N1CCCC1c1ccccc1Br (stereo not shown) [Compound 390]
< 4.35	O=C(c1cc(-c2ccccc2)on1)N1CCC(c2cccc(F)c2)C1 (stereo not shown) [Compound 339]
< 4.35	O=C(Nc1cnn(Cc2ccccc2Cl)c1)c1cc(-c2ccco2)on1 [Compound 23, N-[1-[(2-chlorophenyl)methyl]pyrazol-4-yl]-5-(2-furyl)isoxazole-3-carboxamide]
< 4.35	CNC(=O)c1ccc(-c2cc(C(=O)N3CCC(F)(c4ccccc4)CC3)no2)cc1 [Compound 321]
7.05	O=C(Nc1cnn(Cc2ccccc2)c1)c1cc(-c2ccco2)on1 [Compound 4, N-(1-benzyl-1H-pyrazol-4-yl)-5-(furan-2-yl)isoxazole-3-carboxamide]
7.13	CO[C@@H]1CCN(c2cc(C(=O)Nc3cnn(Cc4ccccc4)c3)no2)C1 [Compound 188, (R)—N-(1-benzyl-1H-pyrazol-4-yl)-5-(3-methoxypyrrolidin-1-yl)isoxazole-3-carboxamide]
